pIC50, pKd: −log10 of the molar value. Active and inactive are the calls of the source. The rule behind the calls is not given here.
Legend:
TZM = assay: (§1) Cytotoxicity against human TZM-bl cells assessed as reduction in cell viability after 48 hrs by MTT assay; format: cell-based; details: tzm, 48 h
[1] = Compound aggregation in D2O/1% DMSO-d6 solvent assessed as change in chemical shift at 12 to 200 uM by 1H NMR dilution analysis; format: physicochemical
[2] = target: T1, Human immunodeficiency virus type 1 reverse transcriptase (Human immunodeficiency virus 1, UniProt Q72547); assay: Inhibition of HIV1 reverse transcriptase RNase H using 18-nucleotide 3'-fluorescein-labeled RNA/5'-dabcyl-labeled DNA hybrid as substrate measured after 1 hr by FRET based assay
[3] = target: Human immunodeficiency virus type 1 integrase (Human immunodeficiency virus 1, UniProt Q7ZJM1); assay: Inhibition of recombinant HIV1 integrase strand transfer activity using biotin-labeled double-stranded HIV1 LTR U5 donor DNA substrate pretreated for 5 mins followed by substrate addition and measured after 30 mins by ELISA
[4] = test system: Human immunodeficiency virus 1; assay: Antiviral activity against HIV1 V13-03413B infected in human LC5 cells expressing DsRed1 reporter gene assessed as inhibition of viral infection measured after 48 hrs post infection by reporter gene based […] assay; format: functional, organism-based; details: Human immunodeficiency virus 1, V13-03413B
[5] = Selectivity index, ratio of CC50 for human LC5 cells to IC50 for antiviral activity against HIV1 LAI infected in human LC5 cells; format: toxicity, cell-based; details: read-out: Ratio CC50/IC50
[6] = Metal chelating activity assessed as compound-Mg2+ complex formation in presence of varying concentrations of Mg2+ at 100 uM by UV-vis spectrometry; format: ADME
[7] = Compound aggregation in D2O/1% DMSO-d6 solvent assessed as number of resonance at 12 to 200 uM by 1H NMR dilution analysis; format: physicochemical
[8] = Compound aggregation in D2O/1% DMSO-d6 solvent assessed as peak shape at 12 to 200 uM by 1H NMR dilution analysis; format: physicochemical
[9] = test system: Human immunodeficiency virus 1; assay: Antiviral activity against HIV1 89.6 pseudovirus infected in human TZM-bl cells assessed as inhibition of viral infection incubated for 20 mins prior to infection and measured after 48 hrs post infection by bright Glo-luciferase reporter gene assay; format: functional, organism-based, M:B_89.6; details: for pIC50: Human immunodeficiency virus 1, M:B_89.6, TZM-bl, read-out: IC50
[10] = Selectivity index, ratio of CC50 for human TZM-bl cells to IC50 for antiviral activity against HIV1 89.6 pseudovirus infected in human TZM-bl cells; format: toxicity, cell-based; details: read-out: Ratio CC50/IC50
Reverse transcriptase = Reverse transcriptase (Moloney murine leukemia virus, UniProt Q83371); assay: Inhibition of Murine leukemia virus reverse transcriptase RNase H using 18-nucleotide 3'-fluorescein-labeled RNA/5'-dabcyl-labeled DNA hybrid as substrate measured after 1 hr by FRET based assay
[11] = target: T1, Human immunodeficiency virus type 1 reverse transcriptase; assay: Inhibition of HIV1 Reverse transcriptase polymerase assessed as decrease in digoxigenin and biotin-dUTP incorporation into DNA using poly(A)/oligo(dT)15 as template/primer by ELISA
[12] = as §1; format: cell-based; details: TZM-bl cells
[13] = test system: Human immunodeficiency virus 1; assay: Antiviral activity against HIV1 LAI infected in human LC5 cells expressing DsRed1 reporter gene assessed as inhibition of viral infection measured after 48 hrs post infection by reporter gene based […] assay; format: functional, organism-based; details: for pIC50: Human immunodeficiency virus 1, LAI, 48 h, read-out: IC50
[14] = target: T1, Human immunodeficiency virus type 1 reverse transcriptase; assay: Binding affinity to recombinant wild-type full length HIV1 reverse transcriptase p66/p51 expressed in Escherichia coli by biolayer interferometry
[15] = Inhibition of Avian myeloblastosis virus reverse transcriptase RNase H using 18-nucleotide 3'-fluorescein-labeled RNA/5'-dabcyl-labeled DNA hybrid as substrate measured after 1 hr by FRET based assay
[16] = Inhibition of Escherichia coli reverse transcriptase RNase H using 18-nucleotide 3'-fluorescein-labeled RNA/5'-dabcyl-labeled DNA hybrid as substrate measured after 1 hr by FRET based assay
[17] = Cytotoxicity against human LC5 cells assessed as reduction in cell viability incubated for 48 hrs by resazurin dye-based assay; details: for CC50 at 48 h: LC5 cells
[18] = test system: Human immunodeficiency virus 1; assay: Antiviral activity against HIV1 HXB2 pseudovirus infected in human TZM-bl cells assessed as inhibition of viral infection incubated for 20 mins prior to infection and measured after 48 hrs by bright Glo-luciferase reporter gene assay; format: functional, organism-based, M:B_HXB2R; details: for pIC50: Human immunodeficiency virus 1, M:B_HXB2R, TZM-bl, read-out: IC50
[19] = test system: Human immunodeficiency virus 1; assay: Antiviral activity against HIV1 YU2 pseudovirus infected in human TZM-bl cells assessed as inhibition of viral infection incubated for 20 mins prior to infection and measured after 48 hrs post infection by bright Glo-luciferase reporter gene assay; format: functional, organism-based, isolate YU2; details: for pIC50: Human immunodeficiency virus 1, isolate YU2, TZM-bl, read-out: IC50
[20] = test system: Human immunodeficiency virus 1; assay: Selectivity ratio of IC50 for HIV1 V13-03413B infected in human LC5 cells to IC50 for HIV1 LAI infected in human LC5 cells; format: functional
[21] = Half life of the compound in methyl alcohol assessed as compound racemization at 24 degC; format: physicochemical
[22] = test system: Human immunodeficiency virus 1; assay: Antiviral activity against HIV1 YU2 pseudovirus infected in human TZM-bl cells assessed as inhibition of viral infection at 20 nM measured after 48 hrs post infection by bright Glo-luciferase reporter gene assay relative to control; format: functional; details: Human immunodeficiency virus 1, isolate YU2, TZM-bl
[23] = test system: Human immunodeficiency virus 1; assay: Antiviral activity against HIV1 89.6 pseudovirus infected in human TZM-bl cells assessed as inhibition of viral infection at 20 nM measured after 48 hrs post infection by bright Glo-luciferase reporter gene assay relative to control; format: functional; details: Human immunodeficiency virus 1, M:B_89.6, TZM-bl
[24] = test system: Human immunodeficiency virus 1; assay: Antiviral activity against HIV1 HXB2 pseudovirus infected in human TZM-bl cells assessed as inhibition of viral infection at 20 nM measured after 48 hrs post infection by bright Glo-luciferase reporter gene assay relative to control; format: functional; details: Human immunodeficiency virus 1, M:B_HXB2R
[25] = Selectivity index, ratio of CC50 for human TZM-bl cells to IC50 for antiviral activity against HIV1 HXB2 pseudovirus infected in human TZM-bl cells; format: toxicity, cell-based; details: read-out: Ratio CC50/IC50
[26] = test system: Human immunodeficiency virus 1; assay: Antiviral activity against HIV1 89.6 pseudovirus infected in human TZM-bl cells assessed as inhibition of viral infection up to 200 uM incubated for 20 mins prior to infection and measured after 48 hrs post infection by bright Glo-luciferase reporter gene assay; format: functional, organism-based; details: M:B_89.6
[27] = test system: Human immunodeficiency virus 1; assay: Antiviral activity against HIV1 LAI infected in human LC5 cells expressing DsRed1 reporter gene assessed as inhibition of viral infection up to 200 uM measured after 48 hrs post infection by reporter gene based […] assay; format: functional, organism-based
[28] = test system: Human immunodeficiency virus 1; assay: Antiviral activity against HIV1 HXB2 pseudovirus infected in human TZM-bl cells assessed as inhibition of viral infection up to 200 uM incubated for 20 mins prior to infection and measured after 48 hrs post infection by bright Glo-luciferase reporter gene assay; format: functional, organism-based; details: M:B_HXB2R
[29] = test system: Human immunodeficiency virus 1; assay: Antiviral activity against HIV1 YU2 pseudovirus infected in human TZM-bl cells assessed as inhibition of viral infection up to 200 uM incubated for 20 mins prior to infection and measured after 48 hrs post infection by bright Glo-luciferase reporter gene assay; format: functional, organism-based; details: isolate YU2

Sequence of Human immunodeficiency virus type 1 integrase (Q7ZJM1 whole entry): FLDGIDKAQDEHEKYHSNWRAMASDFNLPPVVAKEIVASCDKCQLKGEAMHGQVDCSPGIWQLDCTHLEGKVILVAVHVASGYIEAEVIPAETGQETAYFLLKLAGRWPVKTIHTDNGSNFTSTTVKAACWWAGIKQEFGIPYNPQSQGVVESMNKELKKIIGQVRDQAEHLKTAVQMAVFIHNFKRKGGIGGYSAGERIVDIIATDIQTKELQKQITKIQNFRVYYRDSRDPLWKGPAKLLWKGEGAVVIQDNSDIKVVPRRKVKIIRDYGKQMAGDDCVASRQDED

O=C1Nc2ccc(Cl)cc2[C@@](C#CC2CC2)(C(F)(F)F)O1 [EFAVIRENZ]
CC50 (TZM): Non-Toxic

CC(C)Oc1ccc2cccnc2c1-c1cccc2ccccc12
Activity [1]: Not Active
pIC50 [2]: 4.33
pIC50 [3]: < 4.00
pIC50 [4]: 4.47
selectivity ratio [5]: 11.4
Activity [6]: Not Active
Activity [7]: Not Active
Activity [8]: Not Active
pIC50 [9]: 5.33
selectivity ratio [10]: 14.6
pIC50 (Reverse transcriptase): < 4.00
pIC50 [11]: < 4.00
CC50 at 48 h [12]: 68.5 µM
pIC50 [13]: 5.17
pKd [14]: 4.42
pIC50 [15]: < 4.00
pIC50 [16]: 4.35
CC50 at 48 h [17]: 86.5 µM
pIC50 [18]: 5.17
pIC50 [19]: 5.05
Ratio IC50 [20]: 5

CCN(CC)C(=O)Oc1ccc2cccnc2c1-c1cccc2ccccc12
selectivity ratio [5]: 2.2
pIC50 [9]: 4.25
selectivity ratio [10]: 1.7
CC50 at 48 h [12]: 95 µM
pIC50 [13]: 4.62
CC50 at 48 h [17]: 51.9 µM
pIC50 [18]: 4.21
pIC50 [19]: 4.11

NC(=O)c1c(N)sc2c1CCCCC2
pIC50 [2]: 4.55

Oc1ccc2cccnc2c1-c1cccc2ccccc12
half-life [21]: 120 h

COc1cnc(-n2cnc(C)n2)c2[nH]cc(C(=O)C(=O)N3CCN(C(=O)c4ccccc4)CC3)c12
inhibition at 0.02 µM [22]: 100%
inhibition at 0.02 µM [23]: 100%
inhibition at 0.02 µM [24]: 100%

CC(C)Oc1ccc2ccccc2c1-c1cccc2cccnc12
selectivity ratio [5]: 3.6
pIC50 [9]: < 4.00
CC50 at 48 h [12]: > 100 µM
pIC50 [13]: 4.40
CC50 at 48 h [17]: 145 µM
pIC50 [18]: < 4.00
pIC50 [19]: < 4.00

Oc1ccc2ccccc2c1-c1cccc2cccnc12
half-life [21]: 89 h

CCN(CC)C(=O)Oc1ccc2ccccc2c1-c1cccc2cccnc12
selectivity ratio [5]: 1.4
pIC50 [9]: 4.77
CC50 at 48 h [12]: 69.3 µM
pIC50 [13]: 4.30
selectivity ratio [25]: 5.5
CC50 at 48 h [17]: 71.4 µM
pIC50 [18]: 4.90
pIC50 [19]: 4.85

Cc1cc(/C=C/C#N)cc(C)c1Nc1ccnc(Nc2ccc(C#N)cc2)n1 [RILPIVIRINE]
pIC50 [2]: < 5.00
pIC50 (Reverse transcriptase): < 5.00
pIC50 [16]: < 5.00

CC(C)Oc1ccc2cccnc2c1-c1cccc2cccnc12
pIC50 [2]: < 4.00
pIC50 [3]: < 4.00
IC50 [9]: Not Active
pIC50 (Reverse transcriptase): < 4.00
pIC50 [11]: < 4.00
CC50 (TZM): Non-Toxic
IC50 [13]: Not Active
Activity [26]: inactive
Activity [27]: inactive
Activity [28]: inactive
pIC50 [16]: < 4.00
CC50 ([17]; 48 h): Non-Toxic
IC50 [18]: Not Active
Activity [29]: inactive
IC50 [19]: Not Active

CCN(CC)C(=O)Oc1ccc2cccnc2c1-c1cccc2cccnc12
IC50 [9]: Not Active
CC50 (TZM): Non-Toxic
IC50 [13]: Not Active
Activity [26]: inactive
Activity [27]: inactive
Activity [28]: inactive
CC50 at 48 h [17]: 383 µM
IC50 [18]: Not Active
Activity [29]: inactive
IC50 [19]: Not Active
